The values below come from paper PMC8910697, “Development of VPC-70619, a Small-Molecule N-Myc Inhibitor as a Potential Therapy for Neuroendocrine Prostate Cancer” (International Journal of Molecular Sciences, 2022).

“Also recorded” adds a separate entry of the source. Like-named read-outs stand apart in the source and are kept apart here.

For data set [1], the system named is HO15.19 cells. The data set can be described thus: Cell viability counter-screen (CellTiter-Glo), Myc-negative HO15.19. In kind it is cell-based. The method, boiled down:
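IMR32 cells (10,000/well) and HO15.19 cells (2000/well), both in EMEM with 10% FBS, were seeded 24 h before 72 h exposure to serial compound dilutions starting at 25 μM. Viability was read by CellTiter-Glo luminescence to give IC50. Single-point testing used 10 µM.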

The test system of data set [2] is NCI-H660 cells. The data set can be described thus: Cell viability (CellTiter-Glo), NCI-H660. In kind it is cell-based. On the procedure: Viability of N-Myc positive (IMR32and NCI-H660) and negative (HO15.19) cells were determined using the CellTiter-Glo Luminescent Cell Viability Assay (Promega cat. G7570) (Madison, WI, USA). Cells were seeded into a 96-well white plate with a clear bottom: 10,000 cells per well for the IMR32 cells cultured in EMEM supplemented with 10% FBS, 2000 HO15.19 cells per well in Eagle’s minimum essential medium (EMEM) supplemented with 10% FBS, and 2000 cells per well for the NCI-H660 neuroendocrine cells cultured in RPMI supplemented 5% FBS, 1% Insulin-Transferrin-Selenium (Thermo Fisher, 41400-045), 10nM b-estradiol (Sigma, E8875), 10nM hydrocortisone (Sigma H0888) and 1% matrigel. Following 24 h incubation, the cells were treated with serial dilutions of the derivatives along with the respective parental compound starting at 25 μM for 72 h. Cell Titer Glo was added to each well at a ratio of 1:1 and incubated on a shaker at RT for 2 min. Luminescence and IC50 was measured with the TECAN InfiniteM200 plate reader (Männedorf, Switzerland).

The target of data set [3] is T1, N-Myc-Max complex (Homo sapiens, UniProt P04198+P61244).
T1 construct: N-Myc (amino acids 309–394) and Max (amino acids 12–93); 6xHis (N); made in house; host or cells: E. coli BL21
T1 sequence (P04198 379-464 limits assumed): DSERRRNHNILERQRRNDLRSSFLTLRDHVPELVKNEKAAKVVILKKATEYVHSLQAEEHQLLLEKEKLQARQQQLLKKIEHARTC
T1 sequence (P61244 12-93 isoform P61244-2 limits assumed): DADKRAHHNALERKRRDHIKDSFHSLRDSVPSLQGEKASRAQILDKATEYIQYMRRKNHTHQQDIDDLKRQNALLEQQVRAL
The data set can be described thus: Microscale thermophoresis (MST) binding. Conditions: for binding to N-Myc-Max complex (in words): MST. An excerpt: We first performed a microscale thermophoresis (MST) assay to validate the direct binding of VPC-70619 to the recombinant N-Myc-Max complex and to calculate the binding affinity. We evaluated the effect of increasing concentrations of 70619 on the movement of a fluorescent labelled N-Myc-Max complex through a temperature gradient induced by an infrared laser.
The bHLHLZ domain of N-Myc (amino acids 309–394) and Max (amino acids 12–93) protein sequences were cloned into pETDuet with an N-terminal 6×His. pETDuet-His-NMyc-Max was transformed and expressed in E. coli BL21 and induced with 0.5 mM isopropyl-β-D-thiogalactopyranoside (IPTG) at 16 °C overnight. The cultures were lysed by sonication and combined for purification by immobilized metal ion chromatography (IMAC) with nickel-nitrilotriacetic acid (Ni-NTA) resin. The bound proteins were eluted from the column with 20 mM Tris, pH = 8, 500 mM NaCl, 5% glycerol, 300 mM imidazole, 5 mM βMe, and 0.1 mM PMSF. Size exclusion chromatography with Superdex 75 was used to increase the purity of the N-Myc-Max protein sample. The purified protein complex was used in subsequent BLI and MST experiments.
An MST assay was conducted to determine the binding affinity of 70619 to the purified N-Myc-Max protein complex. N-Myc-Max protein samples were labeled with the red fluorescent dye NT647 using the Monolith NT Protein labeling kit RED-NHS amine-reactive (NanoTemper Technologies, München, Germany); 70619 was serial diluted with 100% DMSO and mixed with the labeled fluorescent N-Myc-Max (final concentration of protein: 5 nM) in the assay reaction buffer (20 mM Tris, pH = 8, 100 mM NaCl, 0.2 mM TCEP, 0.1 mM PMSF, 5% glycerol) starting at 600 μM, with a final concentration of DMSO of 5%. The protein/inhibitor solution was mixed and incubated at room temperature in the dark for 5 min before being filled into the capillaries. […] Analysis of the data for Kd estimation was calculated with the MO Affinity Analysis software from Nanotemper (München, Germany).

Data set [4] is described as follows: Pharmacokinetics after IP and PO dosing. Format: in vivo, male Balb/c mice. The settings on record: 10 mg/kg; for half-life / Cmax: male, Balb/c, mouse, plasma; for Cmax: 70551 in 75:25 PG/PEG 400, 70619 in 20:80 Kolliphor EL. Here is the method:
In order to characterize VPC-70619 as a drug candidate against N-myc, its pharmacokinetic (PK) characteristics were evaluated in Balb/c mice following intraperitoneal (IP) and peroral (PO) administrations. As presented in Figure 5, we determined the PK properties of VPC-70619 and compared it to the parental molecule, VPC-70551. […] The clearance of 70551 for PO delivery was extremely slow, and we could not determine the T1/2 in the experimental conditions used for this assay. […] Therefore, VPC-70619 was deemed to have appropriate efficacy in vivo, and a better pharmacokinetic profile due to higher bioavailability for both oral and intraperitoneal administration.
Bienta Enamine Biology Services (Kyiv, Ukraine) conducted PK studies according to the Enamine PK study protocols and Institutional Animal Care and Use Guidelines. The PK studies were reviewed and approved by the Bienta Animal Care and Use Committee (BACUC) under the project identification codes PK-VPC-112618 (approved 17 December 2018) and PK-VPC-101119 (approved 21 October 2019), for VPC-70551 and […], respectively. Evaluation of 70619 and 70551 was conducted in male Balb/c mice through intraperitoneal (IP) and peroral (PO) administration. Measurements were taken at six time points: 5, 15, 60, 120, 240, and 360 min for IP; 15, 30, 60, 120, 240, and 480 min for PO. Four mice were included in each treatment group for each time point; one mouse each for IP and PO was included as a control. Initial target administration for both IP and PO was 10 mg/kg dose level, 2 mg/mL dose concentration, and 5 mL/kg dose volume. Concentration of the compounds was evaluated in the plasma samples using an LC-MS/MS system.

With `N#Cc1ccc(NNC(=O)c2ccc(C#N)c(Cl)c2)c(C(F)(F)F)c1` [compound 70619], the “% Inhibition in HO15.19 (10 µM)” value in data set [1] (10 µM, Myc-negative specificity control) is 14.1%. This molecule also displayed an inhibition at 10 µM in data set [1] (Rattus norvegicus, HO15.19, 10 µM, Myc-negative specificity control) of 14%. Also, in data set [1] (counter-screen), the “cytotoxicity in Myc-negative HO15.19 (in words)” value is recorded as “did not report any strong inhibitory effects; also recorded: minimal cytotoxicity”. Further, in data set [2] (NCI-H660, 72 h, read-out: IC50 cell proliferation in NCI-H660), the IC50 was 7 µM. Also, in data set [2] (NEPC in vitro model), the “inhibition of NCI-H660 (in words)” value is “good inhibition”. Further, the “binding to N-Myc-Max complex (in words)” value in data set [3] was “bind weakly”; in data set [3] (listed as VPC-70619), “somewhat weak affinity”. Further, the Kd in data set [3] (estimate, limited solubility in assay buffer, read-out: dissociation constant) was over 130 µM. Also, the half-life in data set [4] (ip, read-out: plasma half-life (T1/2) IP) amounted to 5.5 h; in data set [4] (po, read-out: plasma half-life (T1/2) PO), 7.12 h. Further, the Cmax in data set [4] (IP, read-out: Cmax IP) came to 29500 ng/mL; in data set [4] (PO, read-out: Cmax PO), 24000 ng/mL. Moreover, in data set [4] (single dose IP or PO), the “adverse effects / signs of toxicity in PK animals” value was “No signs of toxicity”.
